Experimental data as given in article PMC7580725 (Drug Delivery, 2020).

What was measured:
[1] = Water contact angle of compressed powder (wettability); type: physicochemical; conditions: pure water drop on compressed slice, Mean ± S.D., n = 3
Procedure: Powdered materials of different formulations were measured for angle of repose applying a BT 1000 powder analyzer (DanDong Better size Instruments, China). The wettability of the powders was evaluated using a contact angle analyzer (Dataphysics OCA-35, Filderstadt, Germany). Prior to measurement, 300 mg of powder was dried and then compressed into a slice with a diameter size of approximately 12 mm under a pressure of 10 MPa for one minute. […] The dynamic wetting angle was recorded using a video system at the speed of 6 frames/min.

[2] = Dissolution test under sink condition; type: physicochemical; conditions: deionized water with 0.3% (w/v) SDS, 900 mL, 37 °C, 100 rpm, 20 mg FNB
Procedure: The dissolution test under sink condition was conducted utilizing a ZRS-8G dissolution tester equipped with USP paddle apparatus (TDTF, Tianjin, China) at 37 °C and 100 rpm. […] Aliquot release medium (5 mL) was withdrawn at predetermined time intervals and an equal volume of fresh medium was added to compensate the sampling loss. The obtained samples were filtered through a 0.22 μm microporous membrane, and determined at 288 nm by UV spectrophotometry (TU-1901, Beijing, China).

Contact angle [1]: 87.2 ± 0.4 °
drug release after 5 min [2]: 5.42%
Structure (SMILES): CC(C)OC(=O)C(C)(C)Oc1ccc(C(=O)c2ccc(Cl)cc2)cc1 [FNB, Fenofibrate]
